According to publication PMC11642016 (International Journal of Molecular Sciences, 2024):

Assays:
Fadu cells = assay: CellTiter-Glo luminescent cell viability assay, Fadu; settings: 72 h, 72 h, second-set screening, mean ± SD, n = 2; for viability at 2.8 µM / viability at 8.3 µM / viability at 25 µM: Homo sapiens, FaDu; for viability at 2.8 µM: read-out: Cell Viability (% of Control) 2.8 µM, Fadu; for viability at 8.3 µM: read-out: Cell Viability (% of Control) 8.3 µM, Fadu; for viability at 25 µM: read-out: Cell Viability (% of Control) 25 µM, Fadu; for Cell Viability (% of Control) 2.8 µM / Cell Viability (% of Control) 8.3 µM / Cell Viability (% of Control) 25 µM: Fadu
PANC-1 cells = assay: CellTiter-Glo luminescent cell viability assay, PANC-1; settings: 72 h, second-set screening, mean ± SD, n = 2; for viability at 2.8 µM / viability at 8.3 µM / viability at 25 µM: Homo sapiens, PANC-1, 72 h; for viability at 2.8 µM: read-out: Cell Viability (% of Control) 2.8 µM, PANC-1; for viability at 8.3 µM: read-out: Cell Viability (% of Control) 8.3 µM, PANC-1; for viability at 25 µM: read-out: Cell Viability (% of Control) 25 µM, PANC-1; for Cell Viability (% of Control) 2.8 µM / Cell Viability (% of Control) 8.3 µM / Cell Viability (% of Control) 25 µM: PANC-1

SMILES	viability at 2.8 µM (Fadu cells)	viability at 8.3 µM (Fadu cells)	viability at 25 µM (Fadu cells)	viability at 2.8 µM (PANC-1 cells)	viability at 8.3 µM (PANC-1 cells)	viability at 25 µM (PANC-1 cells)	Cell Viability (% of Control) 2.8 µM (Fadu cells)	Cell Viability (% of Control) 8.3 µM (Fadu cells)	Cell Viability (% of Control) 25 µM (Fadu cells)	Cell Viability (% of Control) 2.8 µM (PANC-1 cells)	Cell Viability (% of Control) 8.3 µM (PANC-1 cells)	Cell Viability (% of Control) 25 µM (PANC-1 cells)
NCc1cccc(CN2C(=O)C3=C(CCN(Cc4ccc(-n5cc(-c6ccccc6)nn5)cc4)C3)N3CCN=C23)c1 [37b]	108 ± 7%	91 ± 12%	13 ± 6%	110 ± 5%	113 ± 3%	5 ± 6%						
CN(C)CC#Cc1cccc(CN2C(=O)C3=C(CCN(Cc4ccc(-n5cc(-[c-]6cccc6)nn5)cc4)C3)N3CCN=C23)c1.[Fe+2].c1cc[cH-]c1 [39a]							99 ± 9 % of Control	45 ± 52 % of Control	13 ± 15 % of Control	112 ± 7 % of Control	62 ± 72 % of Control	35 ± 41 % of Control
CN(C)CC#Cc1cccc(CN2C(=O)C3=C(CCN(Cc4ccc(-n5cc(-c6ccccc6)nn5)cc4)C3)N3CCN=C23)c1 [39b]	96 ± 4%	15 ± 8%	1 ± 1%	107 ± 3%	25 ± 20%	2 ± 3%						
O=C1C2=C(CCN(Cc3ccc(-n4cc(-[c-]5cccc5)nn4)cc3)C2)N2CCN=C2N1Cc1cccc(C#CCN2CCCCC2)c1.[Fe+2].c1cc[cH-]c1 [40a]							105 ± 5 % of Control	81 ± 21 % of Control	45 ± 34 % of Control	119 ± 4 % of Control	72 ± 61 % of Control	61 ± 67 % of Control
O=C1C2=C(CCN(Cc3ccc(-n4cc(-c5ccccc5)nn4)cc3)C2)N2CCN=C2N1Cc1cccc(C#CCN2CCCCC2)c1 [40b]	92 ± 9%	60 ± 3%	24 ± 11%	125 ± 5%	12 ± 10%	1 ± 1%						
CN1CCN(CC#Cc2cccc(CN3C(=O)C4=C(CCN(Cc5ccc(-n6cc(-c7ccccc7)nn6)cc5)C4)N4CCN=C34)c2)CC1 [41b]	106 ± 1%	30 ± 28%	3 ± 1%	110 ± 6%	0%	0%						
O=C1C2=C(CCN(Cc3ccc(-n4cc(-[c-]5cccc5)nn4)cc3)C2)N2CCN=C2N1Cc1cccc(C#CCN2CCOCC2)c1.[Fe+2].c1cc[cH-]c1 [42a]							121 ± 3 % of Control	112 ± 11 % of Control	55 ± 12 % of Control	132 ± 4 % of Control	75 ± 31 % of Control	58 ± 36 % of Control
O=C1C2=C(CCN(Cc3ccc(-n4cc(-c5ccccc5)nn4)cc3)C2)N2CCN=C2N1Cc1cccc(C#CCN2CCOCC2)c1 [42b]	108 ± 7%	91 ± 12%	13 ± 6%	94 ± 5%	82 ± 5%	59 ± 3%						
